According to PubChem BioAssay (NCI):
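Protocol summary: plate cells (96-well), add compound at 5 concentrations, incubate 48 h, interpolate endpoints linearly. TGI is the concentration that stops growth completely.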

What was measured:
Assay in all cases: NCI anticancer screen, dose series, 48 h
ACHN renal = system: ACHN renal
MOLT-4 leukemia = system: MOLT-4 leukemia
SW-620 colon = system: SW-620 colon
OVCAR-8 ovarian = system: OVCAR-8 ovarian
SNB-75 CNS = system: SNB-75 CNS
UO-31 renal = system: UO-31 renal
A498 renal = system: A498 renal
HOP-92 NSCLC = system: HOP-92 NSCLC
DLD-1 colon = system: DLD-1 colon
TK-10 renal = system: TK-10 renal
SNB-78 CNS = system: SNB-78 CNS
NCI-H460 lung = system: NCI-H460 lung
SF-268 CNS = system: SF-268 CNS
SN12C renal = system: SN12C renal
NCI-H23 lung = system: NCI-H23 lung
HCT-15 colon = system: HCT-15 colon
IGROV1 ovarian = system: IGROV1 ovarian
CAKI-1 renal = system: CAKI-1 renal
SNB-19 CNS = system: SNB-19 CNS
SK-MEL-2 melanoma = system: SK-MEL-2 melanoma
LOX IMVI melanoma = system: LOX IMVI melanoma
EKVX NSCLC = system: EKVX NSCLC
HCC-2998 colon = system: HCC-2998 colon
M19-MEL melanoma = system: M19-MEL melanoma
KM20L2 colon = system: KM20L2 colon
CCRF-CEM leukemia = system: CCRF-CEM leukemia
SK-OV-3 ovarian = system: SK-OV-3 ovarian
HOP-62 NSCLC = system: HOP-62 NSCLC
U251 CNS = system: U251 CNS
M14 melanoma = system: M14 melanoma
786-0 renal = system: 786-0 renal
KM12 colon = system: KM12 colon
UACC-62 melanoma = system: UACC-62 melanoma
SF-295 CNS = system: SF-295 CNS
RXF-631 renal = system: RXF-631 renal
UACC-257 melanoma = system: UACC-257 melanoma
SF-539 CNS = system: SF-539 CNS
SR leukemia = system: SR leukemia
NCI-H226 lung = system: NCI-H226 lung
HOP-18 NSCLC = system: HOP-18 NSCLC
K-562 leukemia = system: K-562 leukemia
HT29 colon = system: HT29 colon
HCT-116 colon = system: HCT-116 colon
OVCAR-4 ovarian = system: OVCAR-4 ovarian
SK-MEL-5 melanoma = system: SK-MEL-5 melanoma
HL-60(TB) leukemia = system: HL-60(TB) leukemia
LXFL 529 NSCLC = system: LXFL 529 NSCLC
A549 NSCLC = system: A549 NSCLC
MALME-3M melanoma = system: MALME-3M melanoma
SK-MEL-28 melanoma = system: SK-MEL-28 melanoma

Measured: TGI

C/C(=N\NC(=O)CC#N)c1c(O)cc(C)oc1=O
> 100 µM: all assays above
